Reference: US9708308B2, “Factor IXa inhibitors” (Merck Sharp & Dohme Corp., priority 2012, dated 2017)

These compounds were tested against Factor IXa (Homo sapiens, UniProt P00740) (assay: Determination of inhibitory activity against Factor IXa (cleavage of fluorescent peptide substrate)). Details: cleavage of fluorescent peptide CH3SO2-D-CHG-Gly-Arg-AFC, release of AFC; read-out: FIXa IC50.
Chain of Factor IXa (P00740 227-461 limits assumed): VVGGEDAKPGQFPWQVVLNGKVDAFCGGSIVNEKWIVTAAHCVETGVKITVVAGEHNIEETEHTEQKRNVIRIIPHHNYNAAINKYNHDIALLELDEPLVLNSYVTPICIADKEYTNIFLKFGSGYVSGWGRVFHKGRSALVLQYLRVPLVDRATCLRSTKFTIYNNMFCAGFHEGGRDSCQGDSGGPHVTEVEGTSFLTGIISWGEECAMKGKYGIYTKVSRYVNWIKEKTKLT
Chain of Factor IXa (P00740 47-191 partner limits assumed): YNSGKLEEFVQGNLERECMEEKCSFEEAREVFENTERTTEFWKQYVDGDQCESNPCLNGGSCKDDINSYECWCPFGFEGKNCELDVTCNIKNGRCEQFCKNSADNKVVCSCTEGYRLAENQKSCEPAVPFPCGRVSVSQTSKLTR
Assay type: biochemical
Method in brief: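 Factor IXa activity followed via cleavage of CH3SO2-D-CHG-Gly-Arg-AFC, releasing AFC. Fluorescence read at excitation 405 nm, emission 510 nm.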
Work on `C[C@](O)(C(=O)Nc1cc(Cl)c2c(N)noc2c1)[C@H]1OCCN(c2nn(-c3ccnc(C(F)(F)F)c3)cc2F)C1=O` [Example 121, (R)—N-(3-amino-4-chlorobenzo[d]isoxazol-6-yl)-2-((R)-4-(4-fluoro-1-(2-(trifluoromethyl)pyridin-4-yl)-1H-pyrazol-3-yl)-3-oxomorpholin-2-yl)-2-hydroxypropanamide] yielded an IC50 of 0.193 µM.
In the case of `C[C@](O)(C(=O)Nc1cc(Cl)c2c(N)noc2c1)[C@H]1OCCN(c2ccn(-c3ccnnc3)n2)C1=O` [Example 122, (R)—N-(3-amino-4-chlorobenzo[d]isoxazol-6-yl)-2-hydroxy-2-((R)-3-oxo-4-(1-(pyridazin-4-yl)-1H-pyrazol-3-yl)morpholin-2-yl)propanamide], the IC50 is reported as 0.129 µM.
`C[C@](O)(C(=O)Nc1cc(Cl)c2c(N)noc2c1)[C@H]1OCCN(c2nn(-c3ccnnc3)cc2F)C1=O` [Example 123, (R)—N-(3-amino-4-chlorobenzo[d]isoxazol-6-yl)-2-((R)-4-(4-fluoro-1-(pyridazin-4-yl)-1H-pyrazol-3-yl)-3-oxomorpholin-2-yl)-2-hydroxypropanamide] showed an IC50 of 0.0218 µM.
`C[C@](O)(C(=O)Nc1cc(Cl)c2c(N)noc2c1)[C@H]1OCCN(c2nn(-c3cnnc(C#N)c3)cc2F)C1=O` [Example 124, (R)—N-(3-amino-4-chlorobenzo[d]isoxazol-6-yl)-2-((R)-4-(1-(6-cyanopyridazin-4-yl)-4-fluoro-1H-pyrazol-3-yl)-3-oxomorpholin-2-yl)-2-hydroxypropanamide] was tested, and the IC50 was 0.158 µM.
`COc1cc(-n2cc(F)c(N3CCO[C@H]([C@@](C)(O)C(=O)Nc4cc(Cl)c5c(N)noc5c4)C3=O)n2)cnn1` [Example 125, (R)—N-(3-amino-4-chlorobenzo[d]isoxazol-6-yl)-2-((R)-4-(4-fluoro-1-(6-methoxypyridazin-4-yl)-1H-pyrazol-3-yl)-3-oxomorpholin-2-yl)-2-hydroxypropanamide] was tested, and the IC50 was 0.045 µM.
Compound `C[C@](O)(C(=O)Nc1cc(Cl)c2c(N)noc2c1)[C@H]1OCCN(c2nn(-c3cnnc(C(F)(F)F)c3)cc2F)C1=O` [Example 126, (R)—N-(3-amino-4-chlorobenzo[d]isoxazol-6-yl)-2-((R)-4-(4-fluoro-1-(6-(trifluoromethyl)pyridazin-4-yl)-1H-pyrazol-3-yl)-3-oxomorpholin-2-yl)-2-hydroxypropanamide] has an IC50 of 0.0316 µM.
Work on `C[C@]1([C@@H](O)C(=O)Nc2cc(Cl)c3c(N)noc3c2)OCCN(c2ccn(-c3ccc(S(C)(=O)=O)cc3)n2)C1=O` [Example 127, (R)—N-(3-amino-4-chlorobenzo[d]isoxazol-6-yl)-2-hydroxy-2-((R)-2-methyl-4-(1-(4-(methylsulfonyl)phenyl)-1H-pyrazol-3-yl)-3-oxomorpholin-2-yl)acetamide] yielded an IC50 of 0.746 µM.
With `C[C@]1([C@@H](O)C(=O)Nc2cc(Cl)c3c(N)noc3c2)OCCN(c2ccn(-c3ccncc3)n2)C1=O` [Example 128, (R)—N-(3-amino-4-chlorobenzo[d]isoxazol-6-yl)-2-hydroxy-2-((R)-2-methyl-3-oxo-4-(1-(pyridin-4-yl)-1H-pyrazol-3-yl)morpholin-2-yl)acetamide] the IC50 was 0.224 µM.
For `C[C@](O)(C(=O)Nc1cc(F)c2c(N)noc2c1)[C@H]1OCCN(c2ccn(-c3ccncc3)n2)C1=O` [Example 129, (R)—N-(3-amino-4-fluorobenzo[d]isoxazol-6-yl)-2-hydroxy-2-((R)-3-oxo-4-(1-(pyridin-4-yl)-1H-pyrazol-3-yl)morpholin-2-yl)propanamide], the IC50 was 0.0498 µM.
Work on `Cc1cc(-n2ccc(N3CCO[C@H]([C@@](C)(O)C(=O)Nc4cc(F)c5c(N)noc5c4)C3=O)n2)ccn1` [Example 130, (R)—N-(3-amino-4-fluorobenzo[d]isoxazol-6-yl)-2-hydroxy-2-((R)-4-(1-(2-methylpyridin-4-yl)-1H-pyrazol-3-yl)-3-oxomorpholin-2-yl)propanamide] yielded an IC50 of 0.211 µM.
Compound `C[C@](O)(C(=O)Nc1cc(F)c2c(N)noc2c1)[C@H]1OCCN(c2ccn(-c3ccnc(C(F)(F)F)c3)n2)C1=O` [Example 131, (R)—N-(3-amino-4-fluorobenzo[d]isoxazol-6-yl)-2-hydroxy-2-((R)-3-oxo-4-(1-(2-(trifluoromethyl)pyridin-4-yl)-1H-pyrazol-3-yl)morpholin-2-yl)propanamide] has an IC50 of 0.0952 µM.
`C[C@](O)(C(=O)Nc1cc(F)c2c(N)noc2c1)[C@H]1OCCN(c2ccn(-c3ccnc(C#N)c3)n2)C1=O` [Example 132, (R)—N-(3-amino-4-fluorobenzo[d]isoxazol-6-yl)-2-((R)-4-(1-(2-cyanopyridin-4-yl)-1H-pyrazol-3-yl)-3-oxomorpholin-2-yl)-2-hydroxypropanamide] gave an IC50 of 0.117 µM.
`COc1cc(-n2ccc(N3CCO[C@H]([C@@](C)(O)C(=O)Nc4cc(F)c5c(N)noc5c4)C3=O)n2)ccn1` [Example 133, (R)—N-(3-amino-4-fluorobenzo[d]isoxazol-6-yl)-2-hydroxy-2-((R)-4-(1-(2-methoxypyridin-4-yl)-1H-pyrazol-3-yl)-3-oxomorpholin-2-yl)propanamide] gave an IC50 of 0.275 µM.
Compound `C[C@](O)(C(=O)Nc1cc(F)c2c(N)noc2c1)[C@H]1OCCN(c2nn(-c3ccncc3)cc2F)C1=O` [Example 134, (R)—N-(3-amino-4-fluorobenzo[d]isoxazol-6-yl)-2-((R)-4-(4-fluoro-1-(pyridin-4-yl)-1H-pyrazol-3-yl)-3-oxomorpholin-2-yl)-2-hydroxypropanamide] has an IC50 of 0.0552 µM.
For `C[C@](O)(C(=O)Nc1cc(F)c2c(N)noc2c1)[C@H]1OCCN(c2ccn(-c3ccnnc3)n2)C1=O` [Example 135, (R)—N-(3-amino-4-fluorobenzo[d]isoxazol-6-yl)-2-hydroxy-2-((R)-3-oxo-4-(1-(pyridazin-4-yl)-1H-pyrazol-3-yl)morpholin-2-yl)propanamide], the IC50 was 0.0102 µM.
`C[C@](O)(C(=O)Nc1cc(F)c2c(N)noc2c1)[C@H]1OCCN(c2ccn(-c3cnnc(N4CCC4)c3)n2)C1=O` [Example 136, (R)—N-(3-amino-4-fluorobenzo[d]isoxazol-6-yl)-2-((R)-4-(1-(6-(azetidin-1-yl)pyridazin-4-yl)-1H-pyrazol-3-yl)-3-oxomorpholin-2-yl)-2-hydroxypropanamide] gave an IC50 of 0.0532 µM.
`CC(C)Oc1cc(-n2ccc(N3CCO[C@H]([C@@](C)(O)C(=O)Nc4cc(F)c5c(N)noc5c4)C3=O)n2)cnn1` [Example 137, (R)—N-(3-amino-4-fluorobenzo[d]isoxazol-6-yl)-2-hydroxy-2-((R)-4-(1-(6-isopropoxypyridazin-4-yl)-1H-pyrazol-3-yl)-3-oxomorpholin-2-yl)propanamide] was tested, and the IC50 was 0.19 µM.
For `C[C@](O)(C(=O)Nc1cc(F)c2c(N)noc2c1)[C@H]1OCCN(c2ccn(-c3cnnc(C#N)c3)n2)C1=O` [Example 138, (R)—N-(3-amino-4-fluorobenzo[d]isoxazol-6-yl)-2-((R)-4-(1-(6-cyanopyridazin-4-yl)-1H-pyrazol-3-yl)-3-oxomorpholin-2-yl)-2-hydroxypropanamide], the IC50 was 0.00711 µM.
For `COc1cc(-n2ccc(N3CCO[C@H]([C@@](C)(O)C(=O)Nc4cc(F)c5c(N)noc5c4)C3=O)n2)cnn1` [Example 139, (R)—N-(3-amino-4-fluorobenzo[d]isoxazol-6-yl)-2-hydroxy-2-((R)-4-(1-(6-methoxypyridazin-4-yl)-1H-pyrazol-3-yl)-3-oxomorpholin-2-yl)propanamide], the IC50 was 0.014 µM.
`C[C@](O)(C(=O)Nc1cc(F)c2c(N)noc2c1)[C@H]1OCCN(c2nn(-c3ccnnc3)cc2F)C1=O` [Example 140, (R)—N-(3-amino-4-fluorobenzo[d]isoxazol-6-yl)-2-((R)-4-(4-fluoro-1-(pyridazin-4-yl)-1H-pyrazol-3-yl)-3-oxomorpholin-2-yl)-2-hydroxypropanamide] gave an IC50 of 0.00561 µM.
In the case of `COc1nccc(-n2ccc(N3CCO[C@H]([C@@](C)(O)C(=O)Nc4cc(F)c5c(N)noc5c4)C3=O)n2)n1` [Example 141, (R)—N-(3-amino-4-fluorobenzo[d]isoxazol-6-yl)-2-hydroxy-2-((R)-4-(1-(2-methoxypyrimidin-4-yl)-1H-pyrazol-3-yl)-3-oxomorpholin-2-yl)propanamide], the IC50 is reported as 0.107 µM.
Compound `C[C@]1([C@@H](O)C(=O)Nc2cc(F)c3c(N)noc3c2)OCCN(c2ccn(-c3ccnnc3)n2)C1=O` [Example 142, (R)—N-(3-amino-4-fluorobenzo[d]isoxazol-6-yl)-2-hydroxy-2-((R)-2-methyl-3-oxo-4-(1-(pyridazin-4-yl)-1H-pyrazol-3-yl)morpholin-2-yl)acetamide] has an IC50 of 0.00627 µM.
With `COc1nccc(-n2ccc(N3CCO[C@](C)([C@@H](O)C(=O)Nc4cc(F)c5c(N)noc5c4)C3=O)n2)n1` [Example 143, (R)—N-(3-amino-4-fluorobenzo[d]isoxazol-6-yl)-2-hydroxy-2-((R)-4-(1-(2-methoxypyrimidin-4-yl)-1H-pyrazol-3-yl)-2-methyl-3-oxomorpholin-2-yl)acetamide] the IC50 was 0.0221 µM.
`C[C@](O)(C(=O)Nc1cnc2c(N)noc2c1)[C@H]1OCCN(c2ccn(-c3ccncc3)n2)C1=O` [Example 144, (R)—N-(3-aminoisoxazolo[4,5-b]pyridin-6-yl)-2-hydroxy-2-((R)-3-oxo-4-(1-(pyridin-4-yl)-1H-pyrazol-3-yl)morpholin-2-yl)propanamide] showed an IC50 of 0.458 µM.
Work on `COc1cc(-n2ccc(N3CCO[C@H]([C@@](C)(O)C(=O)Nc4ccc5[nH]c(C)c(Cl)c5c4)C3=O)n2)ccn1` [Example 145, (R)—N-(3-chloro-2-methyl-1H-indol-5-yl)-2-hydroxy-2-((R)-4-(1-(2-methoxypyridin-4-yl)-1H-pyrazol-3-yl)-3-oxomorpholin-2-yl)propanamide] yielded an IC50 of 1.1 µM.
`Cc1[nH]c2ccc(NC(=O)[C@](C)(O)[C@H]3OCCN(c4ccn(-c5ccnnc5)n4)C3=O)cc2c1Cl` [Example 146, (R)—N-(3-chloro-2-methyl-1H-indol-5-yl)-2-hydroxy-2-((R)-3-oxo-4-(1-(pyridazin-4-yl)-1H-pyrazol-3-yl)morpholin-2-yl)propanamide] showed an IC50 of 0.0281 µM.
Compound `C[C@](O)(C(=O)Nc1ccc2c(N)noc2c1)[C@@]1(C)OCCN(c2ccn(-c3ccnnc3)n2)C1=O` [Example 148, (R)—N-(3-Aminobenzo[d]isoxazol-6-yl)-2-hydroxy-2-((R)-2-methyl-3-oxo-4-(1-(pyridazin-4-yl)-1H-pyrazol-3-yl)morpholin-2-yl)propanamide] has an IC50 of 0.0626 µM.
